One data set addresses T1, PPAR-α (Homo sapiens, UniProt Q07869).
T1 construct: host or cells: CV-1
T1 sequence (Q07869 1-468): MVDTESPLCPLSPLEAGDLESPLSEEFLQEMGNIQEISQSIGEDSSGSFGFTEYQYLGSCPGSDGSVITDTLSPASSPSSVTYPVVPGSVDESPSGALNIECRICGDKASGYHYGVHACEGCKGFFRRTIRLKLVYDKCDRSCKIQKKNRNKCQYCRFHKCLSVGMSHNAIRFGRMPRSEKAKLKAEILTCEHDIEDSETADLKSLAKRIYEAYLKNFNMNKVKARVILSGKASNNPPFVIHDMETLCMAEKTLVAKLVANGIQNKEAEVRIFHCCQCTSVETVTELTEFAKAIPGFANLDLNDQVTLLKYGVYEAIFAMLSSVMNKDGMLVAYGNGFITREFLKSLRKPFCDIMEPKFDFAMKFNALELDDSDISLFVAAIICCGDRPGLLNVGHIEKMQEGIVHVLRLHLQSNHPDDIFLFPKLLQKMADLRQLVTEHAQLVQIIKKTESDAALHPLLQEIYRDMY
As to the kind of experiment: cell-based PPAR transactivation (luciferase) assay, PPAR-α. Particulars: 24 h; compounds 10 µM; relative to maximum activation with GW7647 (10 µM); PPAR-Luc in CV-1 cells; read-out: % max PPAR-α. How it is done:
(§1) The PPAR activities of the synthesized dichloroanilide-linked indole analogs were assessed using a standard cell-based transactivation assay in CV-1 cells. GW7647 [42], pioglitazone, and GW0742 [43] were used as positive controls for PPAR-α, -γ, and -δ, respectively. These three positive controls presented the maximum activation for each PPAR subtype. The activity of the compounds was presented as the activation percentage (%) relative to the maximum values of the positive controls at the indicated concentrations.
(§2) Transient transfection and luciferase assay was carried out. CV-1 cells were seeded in 48-well plates at a density of 1.5 × 10^5 cells/well in Dulbecco’s modified Eagle’s medium (DMEM) with containing 10% fetal bovine serum (FBS). The cells were transiently transfected with plasmid mixtures containing PPAR-α/γ expression vector and tk-PPRE-luciferase (Luc) vector for 6 h and then treated with the samples for 24 h. HEK293t cells were seeded in a 60-mm dish at a density of 1.5 × 10^6 cells/dish. After transfection with the plasmid mixtures containing PPAR-δ expression vector and Luc vector for 6 h, the cells were transferred to a 96-well plate and treated with the samples. To normalize the transfection efficiency, a β-galactosidase plasmid was cotransfected. The luciferase activity in the cell lysates was measured using a luciferase assay system (Promega Corp., Madison, WI, USA), and the β-galactosidase activity was determined by measuring the absorbance at 410 nm using an ELISA plate reader. The data were expressed as the relative luciferase activity divided by the β-galactosidase activity. All constructs were kindly gifted by Dr. Ronald M. Evans at The Salk Institute (La Jolla, CA, USA).

The next data set addresses T2, PPAR-γ (Homo sapiens, UniProt P37231).
T2 construct: host or cells: CV-1
T2 sequence (P37231 1-505): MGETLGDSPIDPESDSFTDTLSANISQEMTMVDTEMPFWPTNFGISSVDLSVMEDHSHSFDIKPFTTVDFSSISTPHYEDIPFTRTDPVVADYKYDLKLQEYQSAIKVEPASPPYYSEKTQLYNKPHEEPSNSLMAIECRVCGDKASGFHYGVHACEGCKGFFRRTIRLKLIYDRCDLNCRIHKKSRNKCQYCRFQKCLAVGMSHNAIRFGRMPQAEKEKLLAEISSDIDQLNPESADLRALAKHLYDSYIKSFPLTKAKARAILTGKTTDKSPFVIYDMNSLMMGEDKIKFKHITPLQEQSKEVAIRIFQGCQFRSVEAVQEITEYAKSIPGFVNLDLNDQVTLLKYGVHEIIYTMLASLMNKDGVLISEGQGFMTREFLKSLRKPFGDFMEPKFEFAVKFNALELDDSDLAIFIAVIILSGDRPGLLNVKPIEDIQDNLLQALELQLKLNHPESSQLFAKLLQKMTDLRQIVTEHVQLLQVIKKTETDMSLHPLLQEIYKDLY
Briefly: cell-based PPAR transactivation (luciferase) assay, PPAR-γ. Particulars: for activation at 10 µM: 24 h, compounds 10 µM, relative to maximum activation with pioglitazone (10 µM), PPAR-Luc in CV-1 cells, read-out: % max PPAR-γ; for agonistic activity to PPARs, in words: transactivation assay, all PPAR subtypes. How it is done:
as §1, §2

The next data set deals with T3, PPAR-δ (Homo sapiens, UniProt Q03181).
T3 construct: host or cells: HEK293t
T3 sequence (Q03181 1-441): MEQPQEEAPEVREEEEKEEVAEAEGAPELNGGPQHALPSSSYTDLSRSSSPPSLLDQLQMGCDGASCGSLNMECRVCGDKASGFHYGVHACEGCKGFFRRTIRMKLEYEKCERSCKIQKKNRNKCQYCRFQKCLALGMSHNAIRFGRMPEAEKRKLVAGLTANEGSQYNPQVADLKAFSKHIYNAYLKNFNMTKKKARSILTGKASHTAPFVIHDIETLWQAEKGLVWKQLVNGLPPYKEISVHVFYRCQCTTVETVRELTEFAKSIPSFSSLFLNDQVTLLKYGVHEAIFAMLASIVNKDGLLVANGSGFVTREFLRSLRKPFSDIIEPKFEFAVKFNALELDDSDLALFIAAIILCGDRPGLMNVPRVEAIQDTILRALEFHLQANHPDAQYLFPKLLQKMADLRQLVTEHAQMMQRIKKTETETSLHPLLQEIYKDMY
Briefly: cell-based PPAR transactivation (luciferase) assay, PPAR-δ. Particulars: compounds 10 µM; relative to maximum activation with GW0742 (10 μM); PPAR-Luc in HEK293t cells; read-out: % max PPAR-δ. How it is done: as §1, §2

A further data set deals with db/db mice. More on the design: method as in PMID 21482466, PMID 23265886, PMID 25982078. The conditions noted are these: cited from earlier work.

SMILES strings stand for the structures.

For the compound `CC(C)=CCc1cn(Cc2ccccc2C(=O)O)c2ccc(OCC(=O)Nc3ccc(Cl)cc3Cl)cc12` [Compound 20, 2-((5-(2-((2,4-Dichlorophenyl)amino)-2-oxoethoxy)-3-(3-methylbut-2-en-1-yl)-1H-indol-1-yl)methyl)benzoic acid], the activation at 10 µM on PPAR-α is -5.93 ± 0.14%; on PPAR-γ, 5.1 ± 0.2%; at PPAR-δ, 8.92 ± 0.48%.

With `O=C(COc1ccc2c(Cc3ccccc3)cn(Cc3ccccc3C(=O)O)c2c1)Nc1ccc(Cl)cc1Cl` [Compound 19, 2-((3-Benzyl-6-(2-((2,4-dichlorophenyl)amino)-2-oxoethoxy)-1H-indol-1-yl)methyl)benzoic acid], the activation at 10 µM is 7.25 ± 0.12% at PPAR-α, 19.03 ± 0.13% on PPAR-γ and 19.4 ± 0.54% on PPAR-δ.

As to `O=C(COc1ccc2c(ccn2Cc2ccc(C(=O)O)cc2)c1)Nc1ccc(Cl)cc1Cl` [Compound 16, 4-((5-(2-((2,4-Dichlorophenyl)amino)-2-oxoethoxy)-1H-indol-1-yl)methyl)benzoic acid], the activation at 10 µM at PPAR-α was -19.98 ± 0.08%; on PPAR-γ it was 0.29 ± 0.06%; on PPAR-δ, -1.07 ± 0.14%.

As to `O=C(O)Cc1c[nH]c2ccc(OCC(=O)Nc3ccc(Cl)cc3Cl)cc12` [Compound 5, 2-(5-(2-((2,4-Dichlorophenyl)amino)-2-oxoethoxy)-1H-indol-3-yl)acetic acid], the activation at 10 µM on PPAR-α was -38.13 ± 0.06%; at PPAR-γ, 5.6 ± 0.14%; on PPAR-δ, 11.8 ± 0.35%. The “agonistic activity to PPARs, in words” value on PPAR-γ is on record as “minimum agonistic activities”.

In the case of `O=C(COc1ccc2ccn(Cc3ccc(C(=O)O)cc3)c2c1)Nc1ccc(Cl)cc1Cl` [Compound 17, 4-((6-(2-((2,4-Dichlorophenyl)amino)-2-oxoethoxy)-1H-indol-1-yl)methyl)benzoic acid], the activation at 10 µM on PPAR-α was -14.4 ± 0.16%; at PPAR-γ, -0.84 ± 0.16%; on PPAR-δ, 4.87 ± 0.24%.

Turning to `O=C(O)Cc1cn(Cc2ccccc2)c2ccc(OCCCOc3cccc(OCc4ccc(Cl)cc4)c3)cc12` [Compound 2], in the data set with db/db mice, the “accumulation of lipids and size of the adipocytes” value is given as “reduced”; the blood glucose level result is on record as “lowered”; the “glycated hemoglobin (HbA1c) level” value was “lowered”; the insulin level result was “lowered”. The weight gain result in the data set on db/db mice is “without causing weight gain”.

As for `O=C(O)Cc1c[nH]c2cc(OCC(=O)Nc3ccc(Cl)cc3Cl)ccc12` [Compound 6, 2-(6-(2-((2,4-Dichlorophenyl)amino)-2-oxoethoxy)-1H-indol-3-yl)acetic acid], the activation at 10 µM at PPAR-α was 1.12 ± 0.24%; at PPAR-γ, 8.66 ± 0.23%; on PPAR-δ it was 8.27 ± 0.33%. For the same compound, at PPAR-γ, the “agonistic activity to PPARs, in words” value is listed as “minimum agonistic activities”.

For the compound `O=C(O)Cc1cn(Cc2ccccc2)c2ccc(OCC(=O)Nc3ccc(Cl)cc3Cl)cc12` [Compound 7, 2-(1-Benzyl-5-(2-((2,4-dichlorophenyl)amino)-2-oxoethoxy)-1H-indol-3-yl)acetic acid], the values for the activation at 10 µM on PPAR-α, at PPAR-γ and on PPAR-δ were 21.41 ± 0.21%, 31.2 ± 0.38% and 44.4 ± 0.77%, respectively.

For `CC(C)=CCc1cn(Cc2ccccc2C(=O)O)c2cc(OCC(=O)Nc3ccc(Cl)cc3Cl)ccc12` [Compound 21, 2-((6-(2-((2,4-Dichlorophenyl)amino)-2-oxoethoxy)-3-(3-methylbut-2-en-1-yl)-1H-indol-1-yl)methyl)benzoic acid], the activation at 10 µM at PPAR-α was -2.3 ± 0.19%; at PPAR-γ, 9.55 ± 0.32%; on PPAR-δ, 22.2 ± 0.59%.

As for `O=C(COc1ccc2c(ccn2Cc2cccc(C(=O)O)c2)c1)Nc1ccc(Cl)cc1Cl` [Compound 14, 3-((5-(2-((2,4-Dichlorophenyl)amino)-2-oxoethoxy)-1H-indol-1-yl)methyl)benzoic acid], the activation at 10 µM on PPAR-α amounted to 10.33 ± 0.07%; at PPAR-γ, 42 ± 0.52%; at PPAR-δ, 23.9 ± 0.51%.

Consider `O=C(O)Cc1cn(Cc2ccccc2)c2cc(OCC(=O)Nc3ccc(Cl)cc3Cl)ccc12` [Compound 8, 2-(1-Benzyl-6-(2-((2,4-dichlorophenyl)amino)-2-oxoethoxy)-1H-indol-3-yl)acetic acid], for which the activation at 10 µM at PPAR-α worked out at 31.68 ± 0.22%; at PPAR-γ it was 71.9 ± 0.91%; at PPAR-δ, 65.4 ± 0.7%.

The values are drawn from publication PMC6213020, “Identification of a Novel PPAR-γ Agonist through a Scaffold Tuning Approach” (International Journal of Molecular Sciences, 2018).
